Laboratory results from article PMC5349141, “Polyamines directly promote antizyme-mediated degradation of ornithine decarboxylase by the proteasome” (Microbial Cell, 2015).
Numbering of substitutions follows the chain as printed.

Legend:
[1] = biological target: T1, 6His-Oaz1 (antizyme, OAZ) (Saccharomyces cerevisiae, UniProt Q02803); test: [3H]-spermidine retention by 6His-tagged protein; assay type: binding; details: labelled compound
T1 construct: full-length, in-frame OAZ1 (no ribosomal frameshift needed), 6His tag, from E. coli Rosetta (plasmid pDG240)
T1 sequence (Q02803 1-292): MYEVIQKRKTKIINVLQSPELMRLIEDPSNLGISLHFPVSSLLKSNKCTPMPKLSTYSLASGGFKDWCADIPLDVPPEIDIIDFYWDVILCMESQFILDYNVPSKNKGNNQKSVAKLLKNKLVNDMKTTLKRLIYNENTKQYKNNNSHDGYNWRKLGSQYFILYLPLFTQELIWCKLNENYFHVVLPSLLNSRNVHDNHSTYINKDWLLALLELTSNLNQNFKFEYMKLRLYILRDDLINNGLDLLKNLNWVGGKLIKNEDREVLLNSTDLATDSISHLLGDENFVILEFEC

[2] = biological target: T2, 6His-Oaz1 (antizyme, OAZ) (Saccharomyces cerevisiae, UniProt Q02803, L245A/L246A/K247A/W251A); test: [3H]-spermidine retention by 6His-tagged protein; assay type: binding; details: labelled compound
T2 construct: full-length, in-frame OAZ1 (no ribosomal frameshift needed), 6His tag, from E. coli Rosetta (plasmid pDG240)
T2 sequence (Q02803 1-292 L245A/L246A/K247A/W251A): T1 sequence (Q02803 1-292) with L245A, L246A, K247A, W251A

[3] = biological target: T1, 6His-Oaz1 (antizyme, OAZ); test: competition with [3H]-spermidine; assay type: binding; details: 10 µM [3H]-spermidine; competitive
26S proteasome = biological target: T3, 26S proteasome (Saccharomyces cerevisiae, UniProt P23724+P30656); test: Suc-LLVY-AMC hydrolysis; assay type: biochemical; details: 1 mM ATP; 1 mM DTT; 5 mM MgCl2; pH 7.8; weak effect, site unknown
T3 construct: gene PRE2; anti-Flag beads; singly and doubly capped, some free 20S; with Proteasome subunit beta type-4; Proteasome subunit beta type-1; Proteasome subunit beta type-2; Proteasome subunit beta type-3; Proteasome subunit beta type-7; Proteasome subunit alpha type-1; Proteasome subunit alpha type-2; Proteasome subunit alpha type-3; Proteasome subunit alpha type-4; Proteasome subunit alpha type-5; Proteasome subunit alpha type-6; Proteasome subunit alpha type-7

NCCCCNCCCN [spd, spermidine]
[3H]-spermidine retention by 6His-tagged protein [1]: retention of [^3H]-spermidine by 6His-Oaz1 or 6His-Oaz1-4res | [3H]-spermidine retention by 6His-tagged protein [2]: Oaz1-4res bound [^3H]-spermidine with a similar efficiency as its wild-type counterpart

CC(=O)NCCCNCCCCN [N1-acetylspermidine]
competition with [3H]-spermidine [3]: mono-acetylspermidine derivatives: "mono-acetylated spermidine derivatives showed a clearly reduced binding to antizyme"

NCCCNCCCCNCCCN [spm, spermine]
activity versus spermine concentration (26S proteasome): A small reduction in proteasome activity was observed with polyamine addition

CC(=O)NCCCCNCCCN [N8-acetylspermidine]
competition with [3H]-spermidine [3]: mono-acetylated spermidine derivatives showed a clearly reduced binding to antizyme
